± gives the expanded uncertainty stated by the source.
Details: Liquid, Ebulliometric method (Recirculating still)

COC(C)=O [methyl ethanoate]
Details	vapor or sublimation pressure [kPa]
304 K	37.14 ± 0.19
306 K	40.4 ± 0.21
308 K	43.89 ± 0.22
310 K	47.62 ± 0.24
312 K	51.6 ± 0.26
314 K	55.85 ± 0.28
316 K	60.38 ± 0.31
318 K	65.21 ± 0.33
320 K	70.34 ± 0.36
322 K	75.79 ± 0.39
324 K	81.58 ± 0.41
326 K	87.72 ± 0.45
328 K	94.23 ± 0.48
330 K	101.12 ± 0.51
332 K	108.41 ± 0.55
334 K	116.11 ± 0.59
336 K	124.25 ± 0.63
338 K	132.83 ± 0.67

Source: the NIST ThermoML archive (doi:10.1021/je600518s)
